Reference: PMC8776995 (Frontiers in Chemistry, 2022)
Where “and” joins values, the source holds several entries; their conditions need not be identical. Equal values may be shown once.

Assays:
[1] = target: wild-type EGFR (Homo sapiens, UniProt P00533); test: EGFR kinase assay (ELISA); details: for A450: raw ELISA absorbance
[2] = system: H460 cells; test: CCK-8 antiproliferation assay, H460; details: for Inhibitory efficacy: H460 cells
Experimental: The compounds were dissolved in DMSO to make a 20 μM stock solution and diluted to the concentration of working solutions with complete growth medium before administration.
Cells were seeded in 96-well plates: 3,000–5,000 cells/well in 100 ul. One day after seeding, the test compounds at concentration between 1.0 and 16.0 μ M or 0.1% DMSO (as control) were added to cells in triplicate. 48 h later, CCK-8 was added and incubated the plate for 1–4 h in the incubator. The absorbance at 450 nm were measured using a microplate reader (Bio-Tek).

[3] = system: A549 cells; test: CCK-8 antiproliferation assay, A549; details: for Inhibitory efficacy: A549 cells
[4] = system: PC-9 cells; test: CCK-8 antiproliferation assay, PC-9; details: for Inhibitory efficacy: single repeats (Repeat 1-3), given as fraction
[5] = system: H1975 cells; test: CCK-8 antiproliferation assay, H1975; details: for Inhibitory efficacy: H1975 cells
[6] = 4uM, given as fraction, Repeat 1-3
[7] = 8uM, given as fraction, Repeat 1-3
[8] = 16uM, given as fraction, Repeat 1-3
[9] = 1uM, given as fraction, Repeat 1-3
[10] = 2uM, given as fraction, Repeat 1-3

Sequence of wild-type EGFR (P00533 25-1210): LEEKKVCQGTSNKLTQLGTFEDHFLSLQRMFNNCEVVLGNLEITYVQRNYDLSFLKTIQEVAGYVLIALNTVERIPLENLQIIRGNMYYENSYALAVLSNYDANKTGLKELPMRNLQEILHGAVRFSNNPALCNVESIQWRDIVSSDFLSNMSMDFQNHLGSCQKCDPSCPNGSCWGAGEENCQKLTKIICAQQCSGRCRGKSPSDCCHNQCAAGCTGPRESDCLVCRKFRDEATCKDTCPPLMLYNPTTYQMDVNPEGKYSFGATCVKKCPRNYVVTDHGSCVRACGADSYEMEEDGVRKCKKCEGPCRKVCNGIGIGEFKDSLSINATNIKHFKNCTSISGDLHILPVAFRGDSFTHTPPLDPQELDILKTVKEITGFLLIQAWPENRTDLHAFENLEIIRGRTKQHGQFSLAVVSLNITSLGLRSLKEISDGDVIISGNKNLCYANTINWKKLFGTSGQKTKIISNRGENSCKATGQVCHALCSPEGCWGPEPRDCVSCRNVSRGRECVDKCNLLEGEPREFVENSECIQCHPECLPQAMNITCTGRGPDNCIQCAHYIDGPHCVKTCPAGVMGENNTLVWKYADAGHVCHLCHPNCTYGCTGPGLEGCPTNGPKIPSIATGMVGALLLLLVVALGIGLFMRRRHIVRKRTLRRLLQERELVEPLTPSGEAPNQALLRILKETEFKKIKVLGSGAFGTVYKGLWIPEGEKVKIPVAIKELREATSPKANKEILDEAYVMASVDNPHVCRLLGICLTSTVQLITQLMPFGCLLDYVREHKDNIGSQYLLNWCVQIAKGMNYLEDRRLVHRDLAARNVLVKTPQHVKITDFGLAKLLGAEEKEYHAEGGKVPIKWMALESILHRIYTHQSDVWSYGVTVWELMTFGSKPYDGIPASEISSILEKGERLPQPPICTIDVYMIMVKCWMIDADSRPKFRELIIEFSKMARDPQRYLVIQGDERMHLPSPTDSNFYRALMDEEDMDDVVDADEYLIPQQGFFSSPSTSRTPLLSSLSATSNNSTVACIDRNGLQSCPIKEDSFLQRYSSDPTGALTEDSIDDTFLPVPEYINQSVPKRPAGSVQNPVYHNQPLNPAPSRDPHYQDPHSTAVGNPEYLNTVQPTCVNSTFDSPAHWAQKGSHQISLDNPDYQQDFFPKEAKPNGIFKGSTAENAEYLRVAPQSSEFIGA

melting point: 98 to 101 °C
IC50 ([1]; IC50 (μM) EGFR, ELISA, 3 μmol/L ATP): 4.74 µM
inhibition at 100 fM ([1]; concentration 0.0001 nM (reference for normalisation), one value per replicate column): 0%
Inhibition ([1]; concentration 0.03 nM, one value per replicate column, 3e-05 µM): 3.252
Inhibition ([1]; concentration 0.3 nM, one value per replicate column, 0.0003 µM): 1.084 and 9.485
Inhibition ([1]; concentration 3 nM, one value per replicate column, 0.003 µM): 4.065 and 14.0921
Inhibition ([1]; concentration 30 nM, one value per replicate column, 0.03 µM): 5.691 and 21.1382
Inhibition ([1]; concentration 300 nM, one value per replicate column, 0.3 µM): 10.0271 and 28.9973
inhibition at 3 µM ([1]; concentration 3000 nM, one value per replicate column): 30.9%
Inhibition ([1]; concentration 3000 nM, one value per replicate column, 3 µM): 29.5393
A450 ([1]; concentration 0.0001 nM): 0.702 and 0.668
A450 ([1]; concentration 0.03 nM): 0.702 and 0.656
A450 ([1]; concentration 0.3 nM): 0.698 and 0.633
A450 ([1]; concentration 3 nM): 0.687 and 0.616
A450 ([1]; concentration 30 nM): 0.681 and 0.59
A450 ([1]; concentration 300 nM): 0.665 and 0.561
A450 ([1]; concentration 3000 nM): 0.588 and 0.559
A450 ([1]; concentration 30000 nM): 0.333 and 0.299
IC50 ([2]; Homo sapiens, NCI-H460, 48 h, read-out: IC50 (μM) H460, CCK-8, 48 h, average ± SD of three independent experiments): 11.9 ± 3.63 µM
IC50 ([3]; Homo sapiens, A549, 48 h, read-out: IC50 (μM) A549, CCK-8, 48 h, average ± SD of three independent experiments): 5.95 ± 1.47 µM
IC50 ([4]; Homo sapiens, PC-9, 48 h, read-out: IC50 (μM) PC-9): 22.6 ± 1.16 µM
IC50 ([5]; Homo sapiens, NCI-H1975, 48 h, read-out: IC50 (μM) H1975, CCK-8, 48 h, average ± SD of three independent experiments): > 100 µM
SMILES: COCCOc1cc2ncnc(Nc3cccc(-c4cn(-c5cccc([N+](=O)[O-])c5)nn4)c3)c2cc1OCCOC [e13, [6,7-Bis-(2-methoxy-ethoxy)-quinazolin-4-yl]-{3-[1-(3-nitro-phenyl)-1H-[1,2,3]triazol-4-yl]-phenyl}-amine]
Inhibitory efficacy [2, 6]: 0.3261 and 0.3299
Inhibitory efficacy [2, 7]: 0.4209 and 0.401
Inhibitory efficacy [2, 8]: 0.4769 and 0.494
inhibition at 4 µM ([2]; Homo sapiens, NCI-H460, read-out: Inhibitory efficacy, H460 cells, 4uM, given as fraction, Repeat 1-3): 42.4%
inhibition at 8 µM ([2]; Homo sapiens, NCI-H460, read-out: Inhibitory efficacy, H460 cells, 8uM, given as fraction, Repeat 1-3): 54.8%
inhibition at 16 µM ([2]; Homo sapiens, NCI-H460, read-out: Inhibitory efficacy, H460 cells, 16uM, given as fraction, Repeat 1-3): 56.2%
Inhibitory efficacy [3, 9]: 0.1588 and 0.1553
Inhibitory efficacy [3, 10]: 0.352 and 0.366
Inhibitory efficacy [3, 6]: 0.5268 and 0.5198
Inhibitory efficacy [3, 7]: 0.5749 and 0.6133
Inhibitory efficacy [3, 8]: 0.6238 and 0.6256
inhibition at 1 µM ([3]; Homo sapiens, A549, read-out: Inhibitory efficacy, A549 cells, 1uM, given as fraction, Repeat 1-3): 8.71%
inhibition at 2 µM ([3]; Homo sapiens, A549, read-out: Inhibitory efficacy, A549 cells, 2uM, given as fraction, Repeat 1-3): 36.9%
inhibition at 4 µM ([3]; Homo sapiens, A549, read-out: Inhibitory efficacy, A549 cells, 4uM, given as fraction, Repeat 1-3): 44.6%
inhibition at 8 µM ([3]; Homo sapiens, A549, read-out: Inhibitory efficacy, A549 cells, 8uM, given as fraction, Repeat 1-3): 51.1%
inhibition at 16 µM ([3]; Homo sapiens, A549, read-out: Inhibitory efficacy, A549 cells, 16uM, given as fraction, Repeat 1-3): 56.8%
inhibition at 8 µM ([4]; Homo sapiens, PC-9, read-out: Inhibitory efficacy, PC-9, 8uM, single repeats (Repeat 1-3), given as fraction): 12.1%
inhibition at 16 µM ([4]; Homo sapiens, PC-9, read-out: Inhibitory efficacy, PC-9, 16uM, single repeats (Repeat 1-3), given as fraction): 28.6%
Inhibitory efficacy ([4]; PC-9, 8uM, 8 µM): 0.1077 and 0.1459
Inhibitory efficacy ([4]; PC-9, 16uM, 16 µM): 0.2884 and 0.3336
Inhibitory efficacy [5, 9]: 0.09975 and 0.197
Inhibitory efficacy [5, 10]: 0.1652 and 0.1521
Inhibitory efficacy [5, 6]: 0.1521 and 0.1128
Inhibitory efficacy [5, 7]: 0.1633 and 0.2344
Inhibitory efficacy [5, 8]: 0.1933 and 0.2774
inhibition at 1 µM ([5]; Homo sapiens, NCI-H1975, read-out: Inhibitory efficacy, H1975 cells, 1uM, given as fraction, Repeat 1-3): 14.3%
inhibition at 2 µM ([5]; Homo sapiens, NCI-H1975, read-out: Inhibitory efficacy, H1975 cells, 2uM, given as fraction, Repeat 1-3): 25.5%
inhibition at 4 µM ([5]; Homo sapiens, NCI-H1975, read-out: Inhibitory efficacy, H1975 cells, 4uM, given as fraction, Repeat 1-3): 15%
inhibition at 8 µM ([5]; Homo sapiens, NCI-H1975, read-out: Inhibitory efficacy, H1975 cells, 8uM, given as fraction, Repeat 1-3): 24.2%
inhibition at 16 µM ([5]; Homo sapiens, NCI-H1975, read-out: Inhibitory efficacy, H1975 cells, 16uM, given as fraction, Repeat 1-3): 21%
